# Laboratory results reported in PubChem BioAssay (NCI).
#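 Exposure lasted 48 hours, with cells grown in 96-well plates and compounds tested at five concentrations. At the GI50, growth is halved. At the TGI there is no net growth.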
# Columns and labels:
# Assay in all cases: NCI anticancer screen, dose series, 48 h
# RPMI-8226 leukemia = test system: RPMI-8226 leukemia
# ACHN renal = test system: ACHN renal
# NCI-H460 lung = test system: NCI-H460 lung
# EKVX NSCLC = test system: EKVX NSCLC
# SNB-75 CNS = test system: SNB-75 CNS
# HCC-2998 colon = test system: HCC-2998 colon
# SF-295 CNS = test system: SF-295 CNS
# SF-539 CNS = test system: SF-539 CNS
# A549 NSCLC = test system: A549 NSCLC
# 786-0 renal = test system: 786-0 renal
# KM12 colon = test system: KM12 colon
# COLO 205 colon = test system: COLO 205 colon
# A498 renal = test system: A498 renal
# MDA-MB-231 breast = test system: MDA-MB-231 breast
# PC-3 prostate = test system: PC-3 prostate
# T-47D breast = test system: T-47D breast
# SF-268 CNS = test system: SF-268 CNS
# HOP-62 NSCLC = test system: HOP-62 NSCLC
# MDA-MB-435 = test system: MDA-MB-435
# HL-60(TB) leukemia = test system: HL-60(TB) leukemia
# CAKI-1 renal = test system: CAKI-1 renal
# NCI-H23 lung = test system: NCI-H23 lung
# RXF 393 renal = test system: RXF 393 renal
# HCT-116 colon = test system: HCT-116 colon
# OVCAR-8 ovarian = test system: OVCAR-8 ovarian
# OVCAR-3 ovarian = test system: OVCAR-3 ovarian
# MALME-3M melanoma = test system: MALME-3M melanoma
# SK-OV-3 ovarian = test system: SK-OV-3 ovarian
# UO-31 renal = test system: UO-31 renal
# TK-10 renal = test system: TK-10 renal
# BT-549 breast = test system: BT-549 breast
# DU-145 prostate = test system: DU-145 prostate
# SK-MEL-28 melanoma = test system: SK-MEL-28 melanoma
# UACC-62 melanoma = test system: UACC-62 melanoma
# UACC-257 melanoma = test system: UACC-257 melanoma
# OVCAR-4 ovarian = test system: OVCAR-4 ovarian
# SNB-19 CNS = test system: SNB-19 CNS
# SK-MEL-5 melanoma = test system: SK-MEL-5 melanoma
# NCI/ADR-RES ovarian = test system: NCI/ADR-RES ovarian
# OVCAR-5 ovarian = test system: OVCAR-5 ovarian
# U251 CNS = test system: U251 CNS
# MOLT-4 leukemia = test system: MOLT-4 leukemia
# HS 578T breast = test system: HS 578T breast
# NCI-H522 lung = test system: NCI-H522 lung
# IGROV1 ovarian = test system: IGROV1 ovarian
# SW-620 colon = test system: SW-620 colon
# HT29 colon = test system: HT29 colon
# CCRF-CEM leukemia = test system: CCRF-CEM leukemia
# NCI-H226 lung = test system: NCI-H226 lung
# MCF7 breast = test system: MCF7 breast
# HOP-92 NSCLC = test system: HOP-92 NSCLC
# SN12C renal = test system: SN12C renal
# LOX IMVI melanoma = test system: LOX IMVI melanoma
# SK-MEL-2 melanoma = test system: SK-MEL-2 melanoma
# M14 melanoma = test system: M14 melanoma
# HCT-15 colon = test system: HCT-15 colon
# K-562 leukemia = test system: K-562 leukemia
compound,measurement,setting,value
CCc1nccc2c1nc(-c1nonc1N)n2CC,GI50,RPMI-8226 leukemia,> 25 µM
same,TGI,RPMI-8226 leukemia,> 25 µM
same,GI50,ACHN renal,> 23.2 µM
same,TGI,ACHN renal,> 25 µM
same,GI50,NCI-H460 lung,> 25 µM
same,TGI,NCI-H460 lung,> 25 µM
same,GI50,EKVX NSCLC,> 25 µM
same,TGI,EKVX NSCLC,> 25 µM
same,GI50,SNB-75 CNS,> 23.4 µM
same,TGI,SNB-75 CNS,> 25 µM
same,GI50,HCC-2998 colon,> 25 µM
same,TGI,HCC-2998 colon,> 25 µM
same,GI50,SF-295 CNS,> 7.78 µM
same,TGI,SF-295 CNS,> 25 µM
same,GI50,SF-539 CNS,> 25 µM
same,TGI,SF-539 CNS,> 25 µM
same,GI50,A549 NSCLC,> 25 µM
same,TGI,A549 NSCLC,> 25 µM
same,GI50,786-0 renal,> 25 µM
same,TGI,786-0 renal,> 25 µM
same,GI50,KM12 colon,> 25 µM
same,TGI,KM12 colon,> 25 µM
same,GI50,COLO 205 colon,> 25 µM
same,TGI,COLO 205 colon,> 25 µM
same,GI50,A498 renal,7.1 µM
same,TGI,A498 renal,> 25 µM
same,GI50,MDA-MB-231 breast,> 25 µM
same,TGI,MDA-MB-231 breast,> 25 µM
same,GI50,PC-3 prostate,> 25 µM
same,TGI,PC-3 prostate,> 25 µM
same,GI50,T-47D breast,> 25 µM
same,TGI,T-47D breast,> 25 µM
same,GI50,SF-268 CNS,> 25 µM
same,TGI,SF-268 CNS,> 25 µM
same,GI50,HOP-62 NSCLC,> 25 µM
same,TGI,HOP-62 NSCLC,> 25 µM
same,GI50,MDA-MB-435,> 25 µM
same,TGI,MDA-MB-435,> 25 µM
same,GI50,HL-60(TB) leukemia,> 25 µM
same,TGI,HL-60(TB) leukemia,> 25 µM
same,GI50,CAKI-1 renal,12.2 µM
same,TGI,CAKI-1 renal,> 25 µM
same,GI50,NCI-H23 lung,> 25 µM
same,TGI,NCI-H23 lung,> 25 µM
same,GI50,RXF 393 renal,13.6 µM
same,TGI,RXF 393 renal,> 25 µM
same,GI50,HCT-116 colon,20.4 µM
same,TGI,HCT-116 colon,> 25 µM
same,GI50,OVCAR-8 ovarian,> 25 µM
same,TGI,OVCAR-8 ovarian,> 25 µM
same,GI50,OVCAR-3 ovarian,> 25 µM
same,TGI,OVCAR-3 ovarian,> 25 µM
same,GI50,MALME-3M melanoma,> 25 µM
same,TGI,MALME-3M melanoma,> 25 µM
same,GI50,SK-OV-3 ovarian,> 25 µM
same,TGI,SK-OV-3 ovarian,> 25 µM
same,GI50,UO-31 renal,9.73 µM
same,TGI,UO-31 renal,> 25 µM
same,GI50,TK-10 renal,7.83 µM
same,TGI,TK-10 renal,> 25 µM
same,GI50,BT-549 breast,> 23.3 µM
same,TGI,BT-549 breast,> 25 µM
same,GI50,DU-145 prostate,> 25 µM
same,TGI,DU-145 prostate,> 25 µM
same,GI50,SK-MEL-28 melanoma,> 25 µM
same,TGI,SK-MEL-28 melanoma,> 25 µM
same,GI50,UACC-62 melanoma,> 25 µM
same,TGI,UACC-62 melanoma,> 25 µM
same,GI50,UACC-257 melanoma,> 25 µM
same,TGI,UACC-257 melanoma,> 25 µM
same,GI50,OVCAR-4 ovarian,> 25 µM
same,TGI,OVCAR-4 ovarian,> 25 µM
same,GI50,SNB-19 CNS,> 25 µM
same,TGI,SNB-19 CNS,> 25 µM
same,GI50,SK-MEL-5 melanoma,> 25 µM
same,TGI,SK-MEL-5 melanoma,> 25 µM
same,GI50,NCI/ADR-RES ovarian,> 25 µM
same,TGI,NCI/ADR-RES ovarian,> 25 µM
same,GI50,OVCAR-5 ovarian,> 17.8 µM
same,TGI,OVCAR-5 ovarian,> 25 µM
same,GI50,U251 CNS,> 25 µM
same,TGI,U251 CNS,> 25 µM
same,GI50,MOLT-4 leukemia,> 25 µM
same,TGI,MOLT-4 leukemia,> 25 µM
same,GI50,HS 578T breast,> 19.7 µM
same,TGI,HS 578T breast,> 25 µM
same,GI50,NCI-H522 lung,> 17.7 µM
same,TGI,NCI-H522 lung,> 25 µM
same,GI50,IGROV1 ovarian,16.8 µM
same,TGI,IGROV1 ovarian,> 25 µM
same,GI50,SW-620 colon,> 25 µM
same,TGI,SW-620 colon,> 25 µM
same,GI50,HT29 colon,> 25 µM
same,TGI,HT29 colon,> 25 µM
same,GI50,CCRF-CEM leukemia,> 25 µM
same,TGI,CCRF-CEM leukemia,> 25 µM
same,GI50,NCI-H226 lung,> 18 µM
same,TGI,NCI-H226 lung,> 25 µM
same,GI50,MCF7 breast,> 25 µM
same,TGI,MCF7 breast,> 25 µM
same,GI50,HOP-92 NSCLC,1.39 µM
same,TGI,HOP-92 NSCLC,21.5 µM
same,GI50,SN12C renal,> 25 µM
same,TGI,SN12C renal,> 25 µM
same,GI50,LOX IMVI melanoma,> 25 µM
same,TGI,LOX IMVI melanoma,> 25 µM
same,GI50,SK-MEL-2 melanoma,> 25 µM
same,TGI,SK-MEL-2 melanoma,> 25 µM
same,GI50,M14 melanoma,> 25 µM
same,TGI,M14 melanoma,> 25 µM
same,GI50,HCT-15 colon,> 25 µM
same,TGI,HCT-15 colon,> 25 µM
same,GI50,K-562 leukemia,> 25 µM
same,TGI,K-562 leukemia,> 25 µM
